Results: publication PMC11926788, “Effect of SSR504734, a Selective Glycine Transporter Type 1 Inhibitor, on Seizure Thresholds, Neurotransmitter Levels, and Inflammatory Markers in Mice” (ACS Chemical Neuroscience, 2025)
Values joined by “and” are separate entries in the source; they are usually repeats but may differ in a detail not shown here. Equal values may be shown once. Where a name gives a salt, the structure may show the parent alone.

Assays:
[1] = Grip strength test (neuromuscular strength); assay type: in vivo, mice
Procedure: The effect of SSR504734 on neuromuscular strength was determined using the grip-strength apparatus (BioSeb, Chaville, France). The apparatus consists of a steel wire grid of 8 × 8 cm, connected to an isometric force transducer. Each mouse was held by the tail, allowing it to grasp the grid with its forepaws only and steadily pulled back until it released the grid. The maximum grip strength value (in newtons; N) was measured three times for each animal. The mean force was normalized to body weight and expressed in mN/g ± SD for each experimental group. In order to minimize the number of animals used, a grip-strength test was carried out shortly before seizure tests.
(§1) Table S2. Time-course effect of SSR5504734 on neuromuscular strength and motor […]
(§2) Group Neuromuscular strength Impairment of motor
(§3) SSR504734 was dissolved in normal saline and injected i.p. at the dose of 30 mg/kg. Control animals received saline. The data are expressed as the mean ± SD of grip strengths measured in millinewtons per gram of mouse body weight (mN/g) from the grip-strength test assessing […]
(§4) coordination impairment in the chimney test. Each experimental group consisted of 12 animals. The grip-strength test results were analyzed using a one-way ANOVA with Dunnett’s post hoc test, while the data from the chimney test were statistically evaluated using Fisher’s exact probability test. *p<0.05 vs. control group.
(§5) Table S3. Effect of acute and 14-day treatment with SSR504734 on neuromuscular strength and motor coordination in mice
(§6) In acute studies, SSR504734 and sodium valproate (VPA; positive control) were injected i.p.
(§7) 60 and 15 min before the test, respectively. In subchronic studies, SSR504734 and VPA were injected i.p. every 24 h for 14 days. The last administration was made 60 and 15 min before the tests, respectively. Control animals received saline. Each experimental group consisted of 12 animals. The grip-strength test results were analyzed using a one-way ANOVA with […]
(§8) Fisher’s exact probability test.

[2] = Chimney test (motor coordination); assay type: in vivo, mice
Procedure: The impact of SSR504734 on motor coordination in mice was evaluated by using the chimney test. Each animal was individually placed inside a transparent Plexiglas tube with an inner diameter of 3 cm and a length of 30 cm. The tube was horizontally positioned on a table and shifted vertically once the mouse reached the opposite end. Within a 60 s time frame, the mouse was required to climb backward to escape from the tube. In order to minimize the number of animals used, a chimney test was carried out shortly before seizure tests.
as §1, §2, §3, §4, §5, §6, §7, §8

rat GlyT1 = biological target: T1, rat GlyT1 (Rattus norvegicus, UniProt P28572); assay: GlyT1 radioligand binding ([3H]glycine, rat brain cortex, Eurofins Panlabs)
T1 construct: tissue Eurofins Panlabs Discovery Services Taiwan, Ltd. (ran the assay); host or cells: Wistar rat brain cortex
T1 sequence (P28572 1-638): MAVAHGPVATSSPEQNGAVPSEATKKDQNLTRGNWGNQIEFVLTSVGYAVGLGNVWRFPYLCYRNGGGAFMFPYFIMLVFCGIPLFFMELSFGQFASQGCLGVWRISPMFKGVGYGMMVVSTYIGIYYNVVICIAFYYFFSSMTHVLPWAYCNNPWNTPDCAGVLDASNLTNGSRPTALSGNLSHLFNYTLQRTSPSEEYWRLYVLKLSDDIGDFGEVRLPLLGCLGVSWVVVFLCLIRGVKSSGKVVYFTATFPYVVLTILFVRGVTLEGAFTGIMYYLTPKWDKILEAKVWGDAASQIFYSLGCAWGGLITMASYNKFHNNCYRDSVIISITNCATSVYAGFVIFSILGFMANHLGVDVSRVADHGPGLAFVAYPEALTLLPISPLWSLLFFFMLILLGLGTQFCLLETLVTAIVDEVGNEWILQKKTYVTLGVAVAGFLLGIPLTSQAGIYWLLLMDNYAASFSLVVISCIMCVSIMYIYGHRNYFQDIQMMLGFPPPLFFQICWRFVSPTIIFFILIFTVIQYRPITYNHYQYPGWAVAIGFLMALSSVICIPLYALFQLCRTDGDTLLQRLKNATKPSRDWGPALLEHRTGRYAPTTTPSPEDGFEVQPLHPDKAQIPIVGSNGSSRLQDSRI

[3] = PAMPA (Gentest Precoated PAMPA Plate System); assay type: in vitro ADME; details: ± SD
Procedure: (§9) A series of in vitro ADME-Tox tests were performed for SSR504734 in order to estimate its drugability. The ADME-Tox parameters including permeability, plasma protein binding, metabolic stability, neurotoxicity, and hepatotoxicity were carried out as described previously.[31],[32] The ability of SSR504734 to penetrate through the biological membrane by passive diffusion was estimated by the Gentest Precoated PAMPA Plate System (Corning, Tewksbury, MA) and expressed as the permeability coefficient (Pe). The protein binding analysis was performed by using the commercial TRANSIL^XL PPB test, which mimics in vitro physiological plasma conditions where human serum albumin (HAS) and alpha-1-acid glycoprotein AGP are present in a 24:1 ratio. The human metabolism of SSR504734 was studied using human liver microsomes (HLMs) provided by Sigma-Aldrich. The hepatotoxicity and neurotoxicity were estimated in cellular models with the use of hepatoma HepG2 and neuroblastoma SH-SY5Y cell lines to perform the preliminary safety tests. The cells were incubated with SSR504734 at the concentration range of 0.1–100 μM. 1 μM cytostatic drug doxorubicin (DX) was used as the reference.

hepatoma HepG2 cells = assay: Hepatotoxicity, HepG2 cell viability; assay type: cell-based
Procedure: as §9
Figure 8 Effect of cytostatic drug doxorubicin (DX) and SSR504734 on (A) hepatoma HepG2 and (B) neuroblastoma SH-SY5Y cell lines viability after 72 h of incubation at 37 °C, 5% CO2. Data are expressed as means ± SD. Statistical analysis: ****p < 0.0001 vs negative control −1% DMSO in growth media (one-way ANOVA, followed by Dunnett’s post hoc test).
Figure S8. The effect of cytostatic drug doxorubicin and SSR504734 on (A) hepatoma
HepG2 and (B) neuroblastoma SH-SY5Y cell line viability after 72 h of incubation at 37 °C,
5% CO2. The IC50 values were calculated by GraphPad Prism 8.0.
(1 picture or pasted object on this page, not shown here)

[4] = 14-day treatment, 10 mg/kg i.p.
[5] = 14-day treatment, 30 mg/kg i.p.
[6] = read-out: % inhibition of control specific binding

## O=C(NC(c1ccccc1)C1CCCCN1)c1cccc(C(F)(F)F)c1Cl [SSR504734, 2-chloro-N-[(S)-phenyl[(2S)-piperidin-2-yl]methyl]-3-trifluoromethyl benzamide monohydrochloride]
[1]; 30 mg/kg i.p., 30 min
  Neuromuscular strength: 30.33 ± 5.38 mN/g
[1]; 30 mg/kg i.p., 60 min
  Neuromuscular strength: 33.63± 4.94 mN/g
[1]; 30 mg/kg i.p., 120 min
  Neuromuscular strength: 33.49 ± 3.76 mN/g
[1]; 30 mg/kg i.p., 240 min
  Neuromuscular strength: 32.13 ± 3.42 mN/g
[1]; 14-day treatment, 3 mg/kg i.p.
  Neuromuscular strength: 25.02 ± 5.35 mN/kg
[1]; [4]
  Neuromuscular strength: 23.48 ± 5.98 mN/kg
[1]; [5]
  Neuromuscular strength: 27.76 ± 6.00 mN/kg
[1]; acute treatment, 10 mg/kg i.p.
  Neuromuscular strength: 31.15 ± 5.55 mN/kg
[1]; acute treatment, 30 mg/kg i.p.
  Neuromuscular strength: 31.00 ± 9.46 mN/kg
[1]; acute treatment, 50 mg/kg i.p.
  Neuromuscular strength: 30.31 ± 5.08 mN/kg
[2]; 30 mg/kg i.p., 15 min
  Impairment of motor coordination: 0%
[2]; 30 mg/kg i.p., 30 min
  Impairment of motor coordination: 0%
[2]; 30 mg/kg i.p., 60 min
  Impairment of motor coordination: 0%
[2]; 30 mg/kg i.p., 120 min
  Impairment of motor coordination: 8.33%
[2]; 30 mg/kg i.p., 240 min
  Impairment of motor coordination: 0%
[2]; 14-day treatment, 3 mg/kg i.p.
  Impairment of motor coordination: 0%
[2]; [4]
  Impairment of motor coordination: 0%
[2]; [5]
  Impairment of motor coordination: 0%
[2]; acute treatment, 10 mg/kg i.p.
  Impairment of motor coordination: 0%
[2]; acute treatment, 30 mg/kg i.p.
  Impairment of motor coordination: 0%
[2]; acute treatment, 50 mg/kg i.p., 50 mg/kg
  Impairment of motor coordination: 33.3% and ~33%
Rat GlyT1; 0.1 μM, rat brain cortex
  % inhibition of control specific binding: moderate interaction
Rat GlyT1; [6]
  inhibition at 0.1 µM: 42%
  inhibition at 20 µM: 52%
  inhibition at 100 µM: 62%
[3]; PAMPA, read-out: PAMPA Pe
  Papp: 14.8 ± 1.49 ×10⁻⁶ cm/s
[3]
  PAMPA Pe: 14.80 10^–6 cm/s
Hepatoma HepG2 cells; 25 μM and higher concentrations, 72 h
  HepG2 cell viability: significant decrease
Hepatoma HepG2 cells; Homo sapiens, HepG2, 72 h of incubation
  IC50: 14.8 µM
Hepatoma HepG2 cells; concentration range of 1–10 μM, 72 h
  hepatotoxic properties (HepG2 viability): did not exhibit hepatotoxic properties
